Laboratory results reported in PubChem BioAssay (NCI).
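Briefly, cells in 96-well plates were exposed to five compound concentrations for 48 h, and endpoints were estimated by linear interpolation. At the GI50, growth is halved. The concentration for full growth arrest is given as TGI.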

Columns and labels:
Assay in all cases: inhibition of tumour cell growth, NCI panel, 48 h
HT29 colon = test system: HT29 colon
RXF 393 renal = test system: RXF 393 renal
DU-145 prostate = test system: DU-145 prostate
IGROV1 ovarian = test system: IGROV1 ovarian
LOX IMVI melanoma = test system: LOX IMVI melanoma
RPMI-8226 leukemia = test system: RPMI-8226 leukemia
A498 renal = test system: A498 renal
SK-MEL-5 melanoma = test system: SK-MEL-5 melanoma
OVCAR-8 ovarian = test system: OVCAR-8 ovarian
SK-MEL-2 melanoma = test system: SK-MEL-2 melanoma
TK-10 renal = test system: TK-10 renal
UACC-62 melanoma = test system: UACC-62 melanoma
CCRF-CEM leukemia = test system: CCRF-CEM leukemia
MDA-N = test system: MDA-N
ACHN renal = test system: ACHN renal
786-0 renal = test system: 786-0 renal
OVCAR-5 ovarian = test system: OVCAR-5 ovarian
HCC-2998 colon = test system: HCC-2998 colon
SK-MEL-28 melanoma = test system: SK-MEL-28 melanoma
OVCAR-4 ovarian = test system: OVCAR-4 ovarian
K-562 leukemia = test system: K-562 leukemia
UO-31 renal = test system: UO-31 renal
NCI/ADR-RES ovarian = test system: NCI/ADR-RES ovarian
MDA-MB-231 breast = test system: MDA-MB-231 breast
KM12 colon = test system: KM12 colon
SF-268 CNS = test system: SF-268 CNS
MOLT-4 leukemia = test system: MOLT-4 leukemia
U251 CNS = test system: U251 CNS
SF-539 CNS = test system: SF-539 CNS
NCI-H226 lung = test system: NCI-H226 lung
NCI-H522 lung = test system: NCI-H522 lung
SW-620 colon = test system: SW-620 colon
SK-OV-3 ovarian = test system: SK-OV-3 ovarian
COLO 205 colon = test system: COLO 205 colon
HS 578T breast = test system: HS 578T breast
HOP-62 NSCLC = test system: HOP-62 NSCLC
MALME-3M melanoma = test system: MALME-3M melanoma
MDA-MB-435 = test system: MDA-MB-435
HCT-15 colon = test system: HCT-15 colon
SNB-19 CNS = test system: SNB-19 CNS
SR leukemia = test system: SR leukemia
CAKI-1 renal = test system: CAKI-1 renal
OVCAR-3 ovarian = test system: OVCAR-3 ovarian
PC-3 prostate = test system: PC-3 prostate
SNB-75 CNS = test system: SNB-75 CNS
HL-60(TB) leukemia = test system: HL-60(TB) leukemia
UACC-257 melanoma = test system: UACC-257 melanoma
NCI-H460 lung = test system: NCI-H460 lung
M14 melanoma = test system: M14 melanoma
SF-295 CNS = test system: SF-295 CNS
EKVX NSCLC = test system: EKVX NSCLC
MCF7 breast = test system: MCF7 breast
NCI-H23 lung = test system: NCI-H23 lung
A549 NSCLC = test system: A549 NSCLC
SN12C renal = test system: SN12C renal
HCT-116 colon = test system: HCT-116 colon
T-47D breast = test system: T-47D breast
HOP-92 NSCLC = test system: HOP-92 NSCLC
BT-549 breast = test system: BT-549 breast

## CSc1nc(C)cc(N(C)c2ccccc2)n1
HT29 colon
  TGI: 49.5 µM
RXF 393 renal
  TGI: > 100 µM
DU-145 prostate
  TGI: > 100 µM
IGROV1 ovarian
  TGI: > 100 µM
LOX IMVI melanoma
  TGI: > 100 µM
RPMI-8226 leukemia
  TGI: > 100 µM
A498 renal
  TGI: > 100 µM
SK-MEL-5 melanoma
  TGI: 56.2 µM
OVCAR-8 ovarian
  TGI: 93 µM
SK-MEL-2 melanoma
  TGI: > 100 µM
TK-10 renal
  TGI: 98.9 µM
UACC-62 melanoma
  TGI: > 100 µM
CCRF-CEM leukemia
  TGI: > 100 µM
MDA-N
  TGI: 61.3 µM
ACHN renal
  TGI: > 100 µM
786-0 renal
  TGI: > 100 µM
OVCAR-5 ovarian
  TGI: > 100 µM
HCC-2998 colon
  TGI: > 100 µM
SK-MEL-28 melanoma
  TGI: > 100 µM
OVCAR-4 ovarian
  TGI: > 100 µM
K-562 leukemia
  TGI: > 100 µM
UO-31 renal
  TGI: > 100 µM
NCI/ADR-RES ovarian
  TGI: 63.6 µM
MDA-MB-231 breast
  TGI: 87.3 µM
KM12 colon
  TGI: 20 µM
SF-268 CNS
  TGI: > 100 µM
MOLT-4 leukemia
  TGI: > 100 µM
U251 CNS
  TGI: > 100 µM
SF-539 CNS
  TGI: 66 µM
NCI-H226 lung
  TGI: 93.9 µM
NCI-H522 lung
  TGI: > 100 µM
SW-620 colon
  TGI: > 100 µM
SK-OV-3 ovarian
  TGI: > 100 µM
COLO 205 colon
  TGI: > 100 µM
HS 578T breast
  TGI: 86.6 µM
HOP-62 NSCLC
  TGI: > 100 µM
MALME-3M melanoma
  TGI: > 100 µM
MDA-MB-435
  TGI: 53 µM
HCT-15 colon
  TGI: > 100 µM
SNB-19 CNS
  TGI: > 100 µM
SR leukemia
  TGI: 60.7 µM
CAKI-1 renal
  TGI: > 100 µM
OVCAR-3 ovarian
  TGI: 97.3 µM
PC-3 prostate
  TGI: > 100 µM
SNB-75 CNS
  TGI: 94.3 µM
HL-60(TB) leukemia
  TGI: 61.9 µM
UACC-257 melanoma
  TGI: 84 µM
NCI-H460 lung
  TGI: > 100 µM
M14 melanoma
  TGI: > 100 µM
SF-295 CNS
  TGI: > 100 µM
EKVX NSCLC
  TGI: > 100 µM
MCF7 breast
  TGI: 75.4 µM
NCI-H23 lung
  TGI: 95.3 µM
A549 NSCLC
  TGI: > 100 µM
SN12C renal
  TGI: > 100 µM
HCT-116 colon
  TGI: > 100 µM

## CN(C)C(=O)c1nnsc1NN=O
HT29 colon
  TGI: > 100 µM
RXF 393 renal
  TGI: > 100 µM
DU-145 prostate
  TGI: > 100 µM
IGROV1 ovarian
  TGI: > 100 µM
LOX IMVI melanoma
  TGI: > 100 µM
RPMI-8226 leukemia
  TGI: > 100 µM
SK-MEL-5 melanoma
  TGI: > 100 µM
OVCAR-8 ovarian
  TGI: > 100 µM
SK-MEL-2 melanoma
  TGI: > 100 µM
T-47D breast
  TGI: > 100 µM
UACC-62 melanoma
  TGI: > 100 µM
CCRF-CEM leukemia
  TGI: > 100 µM
MDA-N
  TGI: > 100 µM
ACHN renal
  TGI: > 100 µM
786-0 renal
  TGI: > 100 µM
OVCAR-5 ovarian
  TGI: > 100 µM
HCC-2998 colon
  TGI: > 100 µM
SK-MEL-28 melanoma
  TGI: > 100 µM
OVCAR-4 ovarian
  TGI: > 100 µM
K-562 leukemia
  TGI: > 100 µM
UO-31 renal
  TGI: > 100 µM
NCI/ADR-RES ovarian
  TGI: > 100 µM
MDA-MB-231 breast
  TGI: > 100 µM
KM12 colon
  TGI: > 100 µM
SF-268 CNS
  TGI: > 100 µM
MOLT-4 leukemia
  TGI: > 100 µM
U251 CNS
  TGI: > 100 µM
NCI-H226 lung
  TGI: > 100 µM
NCI-H522 lung
  TGI: > 100 µM
SW-620 colon
  TGI: > 100 µM
SK-OV-3 ovarian
  TGI: > 100 µM
HOP-92 NSCLC
  TGI: > 100 µM
COLO 205 colon
  TGI: > 100 µM
HS 578T breast
  TGI: > 100 µM
HOP-62 NSCLC
  TGI: > 100 µM
MALME-3M melanoma
  TGI: > 100 µM
MDA-MB-435
  TGI: > 100 µM
HCT-15 colon
  TGI: > 100 µM
SNB-19 CNS
  TGI: > 100 µM
SR leukemia
  TGI: > 100 µM
CAKI-1 renal
  TGI: > 100 µM
OVCAR-3 ovarian
  TGI: > 100 µM
PC-3 prostate
  TGI: > 100 µM
SNB-75 CNS
  TGI: > 100 µM
HL-60(TB) leukemia
  TGI: > 100 µM
UACC-257 melanoma
  TGI: > 100 µM
NCI-H460 lung
  TGI: > 100 µM
M14 melanoma
  TGI: > 100 µM
SF-295 CNS
  TGI: > 100 µM
EKVX NSCLC
  TGI: > 100 µM
MCF7 breast
  TGI: > 100 µM
NCI-H23 lung
  TGI: > 100 µM
A549 NSCLC
  TGI: > 100 µM
SN12C renal
  TGI: > 100 µM
HCT-116 colon
  TGI: > 100 µM

## Nc1cccc(-c2nc3sccn3c2-c2ccnc(NCCCNS(=O)(=O)c3ccc(C(F)(F)F)cc3)n2)c1
HT29 colon
  GI50: 2.85 µM
  TGI: 13.7 µM
RXF 393 renal
  GI50: 6.29 µM
  TGI: > 100 µM
DU-145 prostate
  GI50: 4.26 µM
  TGI: 35.6 µM
IGROV1 ovarian
  GI50: 3.75 µM
  TGI: 23.4 µM
LOX IMVI melanoma
  GI50: 3.27 µM
  TGI: 16.1 µM
RPMI-8226 leukemia
  GI50: 2.45 µM
  TGI: 6.54 µM
A498 renal
  GI50: 3.35 µM
  TGI: 49.5 µM
SK-MEL-5 melanoma
  GI50: 2.2 µM
  TGI: 5.2 µM
OVCAR-8 ovarian
  GI50: 3.49 µM
  TGI: 44.9 µM
SK-MEL-2 melanoma
  GI50: 4.66 µM
  TGI: 23.4 µM
TK-10 renal
  GI50: 11.1 µM
  TGI: > 100 µM
T-47D breast
  GI50: 1.37 µM
  TGI: 5.18 µM
UACC-62 melanoma
  GI50: 2.68 µM
  TGI: 9.71 µM
CCRF-CEM leukemia
  GI50: 3.06 µM
  TGI: 14.4 µM
ACHN renal
  GI50: 3.34 µM
  TGI: 27.1 µM
786-0 renal
  GI50: 5.74 µM
  TGI: > 100 µM
OVCAR-5 ovarian
  GI50: 13.7 µM
  TGI: 95.1 µM
HCC-2998 colon
  GI50: 5.29 µM
  TGI: 92 µM
SK-MEL-28 melanoma
  GI50: 5.07 µM
  TGI: 26.7 µM
OVCAR-4 ovarian
  GI50: 3.27 µM
  TGI: 22.8 µM
K-562 leukemia
  GI50: 2.77 µM
  TGI: > 100 µM
UO-31 renal
  GI50: 3.2 µM
  TGI: 27.5 µM
NCI/ADR-RES ovarian
  GI50: 3.36 µM
  TGI: 56.9 µM
MDA-MB-231 breast
  GI50: 4.85 µM
  TGI: 94 µM
KM12 colon
  GI50: 3.6 µM
  TGI: 13.8 µM
SF-268 CNS
  GI50: 3.97 µM
  TGI: 49.6 µM
MOLT-4 leukemia
  GI50: 2.8 µM
  TGI: 10.4 µM
U251 CNS
  GI50: 5.87 µM
  TGI: > 100 µM
SF-539 CNS
  GI50: 6.66 µM
  TGI: 29.6 µM
NCI-H226 lung
  GI50: 3.14 µM
  TGI: 16.5 µM
NCI-H522 lung
  GI50: 3.35 µM
  TGI: 18.2 µM
SW-620 colon
  GI50: 8 µM
  TGI: > 100 µM
SK-OV-3 ovarian
  GI50: 5.37 µM
  TGI: > 100 µM
BT-549 breast
  GI50: 2.95 µM
  TGI: 13.1 µM
HOP-92 NSCLC
  GI50: 11.4 µM
  TGI: 83.5 µM
COLO 205 colon
  GI50: 3.32 µM
  TGI: 13.1 µM
HS 578T breast
  GI50: 4.05 µM
  TGI: 61.6 µM
HOP-62 NSCLC
  GI50: 5.16 µM
  TGI: 24.3 µM
MALME-3M melanoma
  GI50: 3.94 µM
  TGI: 18 µM
MDA-MB-435
  GI50: 3.21 µM
  TGI: 12.3 µM
HCT-15 colon
  GI50: 3.33 µM
  TGI: 29.9 µM
SNB-19 CNS
  GI50: 8.33 µM
  TGI: > 100 µM
SR leukemia
  GI50: 3.84 µM
  TGI: 43.9 µM
CAKI-1 renal
  GI50: 3.25 µM
  TGI: 72.1 µM
OVCAR-3 ovarian
  GI50: 3.87 µM
  TGI: 23.4 µM
PC-3 prostate
  GI50: 2.41 µM
  TGI: 11.9 µM
SNB-75 CNS
  GI50: 1.83 µM
  TGI: 23.1 µM
HL-60(TB) leukemia
  GI50: 3.28 µM
  TGI: 11.8 µM
UACC-257 melanoma
  GI50: 5.27 µM
  TGI: 50.6 µM
NCI-H460 lung
  GI50: 4.58 µM
  TGI: 58.6 µM
M14 melanoma
  GI50: 3.89 µM
  TGI: 15.3 µM
SF-295 CNS
  GI50: 3.08 µM
  TGI: 10.1 µM
EKVX NSCLC
  GI50: 6.09 µM
  TGI: 86.1 µM
MCF7 breast
  GI50: 4.04 µM
  TGI: 18.5 µM
NCI-H23 lung
  GI50: 5.07 µM
  TGI: 40.9 µM
A549 NSCLC
  GI50: 4.1 µM
  TGI: 87.4 µM
SN12C renal
  GI50: 4.36 µM
  TGI: > 100 µM
HCT-116 colon
  GI50: 3.55 µM
  TGI: 30.5 µM
